Results reported in ChEMBL document CHEMBL2046382, “Synthesis, biological evaluation of 5-carbomethoxymethyl-7-hydroxy-2-pentylchromone, 5-carboethoxymethyl-4',7-dihydroxyflavone and their analogues” (Bioorg Med Chem Lett, 2012).
≈ marks a conversion by molar mass, not a printed value. Calls of active or inactive are those of the source. The rule behind the calls is not given here.

Columns and labels:
Staphylococcus aureus [1] = assay: Antibacterial activity against Staphylococcus aureus MTCC 2940 by modified microtiter broth dilution method; format: functional
Bacillus subtilis = assay: Antibacterial activity against Bacillus subtilis MTCC 121 by modified microtiter broth dilution method; format: functional
Staphylococcus aureus [2] = assay: Antibacterial activity against Staphylococcus aureus MTCC 96 at 80 ug/ml by modified microtiter broth dilution method; format: functional, organism-based
Micrococcus luteus [3] = assay: Antibacterial activity against Micrococcus luteus MTCC 2470 by modified microtiter broth dilution method; format: functional
Raoultella planticola = assay: Antibacterial activity against Klebsiella planticola MTCC 530 by modified microtiter broth dilution method; format: functional
Escherichia coli = assay: Antibacterial activity against Escherichia coli MTCC 739 at 80 ug/ml by modified microtiter broth dilution method; format: functional, organism-based
Pseudomonas aeruginosa = assay: Antibacterial activity against Pseudomonas aeruginosa MTCC 2453 at 80 ug/ml by modified microtiter broth dilution method; format: functional, organism-based
Candida albicans [4] = assay: Antifungal activity against Candida albicans MTCC 3958 by well diffusion method; format: functional
Candida albicans [5] = assay: Antifungal activity against Candida albicans MTCC 4748 by well diffusion method; format: functional
Candida albicans [6] = assay: Antifungal activity against Candida albicans MTCC 7315 by well diffusion method; format: functional
Candida albicans [7] = assay: Antifungal activity against Candida albicans MTCC 854 by well diffusion method; format: functional
Candida parapsilosis [8] = assay: Antifungal activity against Candida parapsilosis MTCC 1744 by well diffusion method; format: functional; conditions: Lodderomyces parapsilosis
Candida parapsilosis [9] = assay: Antifungal activity against Candida parapsilosis MTCC 3018 by well diffusion method; format: functional; conditions: Lodderomyces parapsilosis
Candida albicans [10] = assay: Antifungal activity against Candida albicans MTCC 1637 by well diffusion method; format: functional
Nakaseomyces glabratus = assay: Antifungal activity against Candida glabrata MTCC 3019 by well diffusion method; format: functional
Candida albicans [11] = assay: Antifungal activity against Candida albicans MTCC 227 by well diffusion method; format: functional
Candida albicans [12] = assay: Antifungal activity against Candida albicans MTCC 183 by well diffusion method; format: functional
Candida albicans [13] = assay: Antifungal activity against Candida albicans MTCC 3017 by well diffusion method; format: functional
Pichia kudriavzevii = assay: Antifungal activity against Issatchenkia orientalis MTCC 3020 by well diffusion method; format: functional
[14] = system: Radical scavenging activity; assay: Antioxidant activity assessed as DPPH free radical scavenging activity; format: functional
[15] = Antioxidant activity assessed as superoxide radical scavenging activity; format: functional
[16] = Antioxidant activity of the compound assessed as inhibition of lipid peroxidation; format: functional
[17] = Antioxidant activity in erythrocytes assessed as inhibition of hemolysis; format: functional, cell-based; conditions: erythrocyte
Staphylococcus aureus [18] = assay: Antibacterial activity against Staphylococcus aureus MTCC 2940 at 80 ug/ml by modified microtiter broth dilution method; format: functional, organism-based
Staphylococcus aureus [19] = assay: Antibacterial activity against Staphylococcus aureus MTCC 96 by modified microtiter broth dilution method; format: functional
Micrococcus luteus [20] = assay: Antibacterial activity against Micrococcus luteus MTCC 2470 at 80 ug/ml by modified microtiter broth dilution method; format: functional, organism-based
[21] = system: Radical scavenging activity; assay: Antioxidant activity assessed as DPPH free radical scavenging activity after 48 hrs; format: functional
[22] = Antioxidant activity assessed as superoxide radical scavenging activity after 48 hrs; format: functional
[23] = Antioxidant activity of the compound assessed as inhibition of lipid peroxidation after 48 hrs; format: functional
Erythrocyte = assay: Antioxidant activity in erythrocytes assessed as inhibition of hemolysis after 48 hrs; format: functional, cell-based
[24] = Chemical stability of the compound in antioxidant reaction; format: physicochemical
NCI60 = assay: Cytotoxicity against human NCI60 cells; format: functional, cell-based

SMILES	MIC (Bacillus subtilis) [µg/mL]	MIC (Raoultella planticola) [µg/mL]	Activity (Escherichia coli)	Activity (Pseudomonas aeruginosa)	MIC (Candida albicans [4]) [µg/mL]	MIC (Candida albicans [5]) [µg/mL]	MIC (Candida albicans [6]) [µg/mL]	MIC (Candida albicans [7]) [µg/mL]	MIC (Candida parapsilosis [8]) [µg/mL]	MIC (Candida parapsilosis [9]) [µg/mL]	MIC (Candida albicans [10])	MIC (Nakaseomyces glabratus)	MIC (Candida albicans [11])	MIC (Candida albicans [12])	MIC (Candida albicans [13])	MIC (Pichia kudriavzevii)	other results
COC(=O)Cc1cc(O)cc2oc(-c3ccc(Cl)c(F)c3)cc(=O)c12	75 (≈ 207 µM)	37 (≈ 102 µM)	inactive	inactive	4 (≈ 11 µM)	4 (≈ 11 µM)	9 (≈ 24.8 µM)	9 (≈ 24.8 µM)	9 (≈ 24.8 µM)	9 (≈ 24.8 µM)	inactive	inactive	inactive	inactive	inactive	inactive	MIC (Staphylococcus aureus [1]): 18 µg/mL (≈ 49.6 µM); Activity (Staphylococcus aureus [2]): inactive; MIC (Micrococcus luteus [3]): 18 µg/mL (≈ 49.6 µM); EC50 [14]: 61.66 µg/mL (≈ 170 µM); EC50 [15]: 60.92 µg/mL (≈ 168 µM); EC50 [16]: Not Active; EC50 [17]: Not Active
OC(Cn1cncn1)(Cn1cncn1)c1ccc(F)cc1F [FLUCONAZOLE]					64 (≈ 209 µM)	32 (≈ 104 µM)	32 (≈ 104 µM)	32 (≈ 104 µM)	16 (≈ 52.2 µM)	16 (≈ 52.2 µM)	32 µg/mL (≈ 104 µM)	64 µg/mL (≈ 209 µM)	32 µg/mL (≈ 104 µM)	32 µg/mL (≈ 104 µM)	64 µg/mL (≈ 209 µM)	128 µg/mL (≈ 418 µM)	
COC(=O)Cc1cc(O)cc2oc(-c3ccc(OC)c(OC)c3)cc(=O)c12	9 (≈ 24.3 µM)	18 (≈ 48.6 µM)	inactive	inactive													Activity (Staphylococcus aureus [18]): inactive; MIC (Staphylococcus aureus [19]): 37 µg/mL (≈ 99.9 µM); Activity (Micrococcus luteus [20]): inactive; Activity [21]: inactive; Activity [22]: inactive; Activity [23]: inactive; Activity (Erythrocyte): inactive; Stability [24]: Unstable; Activity (NCI60): inactive
